Columns and labels:
Assay in all cases: relative viability (nuclei count vs DMSO), 5 days (fraction); higher = more cells survive
[1] = compound: CC1=NN=C(O1)C2=NN=C(C=C2)N3CCC(CC3)OC4=C(C=CC(=C4)F)Cl + O=C(c1cc(Cc2n[nH]c(=O)c3ccccc23)ccc1F)N1CCN(C(=O)C2CC2)CC1 [Olaparib] (partner 8 µM)
Method in brief: (§1)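 Lung cancer cell lines, seeded in 1536-well plates, were treated the following day by pin tool with a single drug or with five library-drug doses (not always all listed) in √10 steps on top of a fixed anchor-drug dose. Cells were fixed and nuclei stained in one step after 5 days, and nuclei were counted. Relative viability is the nuclei count for treated wells divided by that for vehicle wells, reported as medians of duplicate plates.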

[2] = compound: CC1=NN=C(O1)C2=NN=C(C=C2)N3CCC(CC3)OC4=C(C=CC(=C4)F)Cl + Nc1nc2[nH]cc(CCc3ccc(C(=O)N[C@@H](CCC(=O)O)C(=O)O)cc3)c2c(=O)[nH]1 [Pemetrexed] (partner 0.2 µM)
Method in brief: as §1

Tosedostat + Linsitinib = compound: CC(C)C[C@@H](C(=O)N[C@H](C(=O)OC1CCCC1)c1ccccc1)[C@H](O)C(=O)NO [Tosedostat] + C[C@]1(O)C[C@@H](c2nc(-c3ccc4ccc(-c5ccccc5)nc4c3)c3c(N)nccn32)C1 [Linsitinib] (partner 1 µM)
Method in brief: as §1

[3] = compound: CC1=NN=C(O1)C2=NN=C(C=C2)N3CCC(CC3)OC4=C(C=CC(=C4)F)Cl + C[C@@H](Oc1cc(-c2cnn(C3CCNCC3)c2)cnc1N)c1c(Cl)ccc(F)c1Cl [Crizotinib] (partner 1 µM)
Method in brief: as §1

| Cell Line | relative viability ([1]; first compound 0.253 µM) | relative viability ([1]; first compound 0.8 µM) | relative viability ([1]; first compound 2.53 µM) | relative viability ([1]; first compound 8 µM) | relative viability ([2]; first compound 0.253 µM) | relative viability ([2]; first compound 0.8 µM) | relative viability ([2]; first compound 2.53 µM) | relative viability ([2]; first compound 8 µM) | relative viability (Tosedostat + Linsitinib; first compound 0.02 µM) | relative viability (Tosedostat + Linsitinib; first compound 0.06325 µM) | relative viability (Tosedostat + Linsitinib; first compound 0.2 µM) | relative viability (Tosedostat + Linsitinib; first compound 0.6325 µM) | relative viability (Tosedostat + Linsitinib; first compound 2 µM) | relative viability ([3]; first compound 0.8 µM) | relative viability ([3]; first compound 2.53 µM) | relative viability ([3]; first compound 8 µM) | relative viability ([3]; first compound 0.253 µM) |
| --- | --- | --- | --- | --- | --- | --- | --- | --- | --- | --- | --- | --- | --- | --- | --- | --- | --- |
| NCI-H1975 | 0.466 | 0.574 | 0.518 | 0.533 | 0.217 | 0.272 | 0.271 | 0.25 | 0.958 | 0.988 | 0.939 | 0.754 | 0.769 | 0.918 | 0.782 | 0.777 | – |
| NCI-H1437 | 0.416 | 0.516 | 0.449 | 0.403 | 0.24 | 0.282 | 0.232 | 0.218 | 1.12 | 1.03 | 1 | 0.752 | 0.66 | 0.506 | 0.55 | 0.535 | 0.605 |
| NCI-H2126 | 0.816 | 0.697 | 0.767 | 0.76 | 0.69 | 0.607 | 0.635 | 0.606 | 0.586 | 0.682 | 0.778 | 0.677 | 0.623 | 0.858 | 0.891 | 0.841 | 0.921 |
| LU99A | 0.214 | 0.294 | 0.277 | 0.299 | 0.149 | 0.18 | 0.162 | 0.164 | 0.508 | 0.555 | 0.528 | 0.561 | 0.504 | 0.604 | 0.655 | 0.552 | 0.571 |
| NCI-H460 | 0.15 | 0.155 | 0.199 | 0.198 | 0.0764 | 0.0663 | 0.0645 | 0.071 | 0.845 | 0.84 | 0.857 | 0.849 | 0.942 | 0.301 | 0.311 | 0.296 | 0.359 |
| LCLC-97TM1 | 0.369 | – | 0.267 | 0.258 | 0.184 | – | 0.199 | 0.184 | 0.181 | – | – | 0.205 | 0.167 | – | 0.442 | 0.327 | 0.262 |
| NCI-H838 | 0.536 | 0.595 | 0.637 | 0.591 | 0.235 | 0.251 | 0.215 | 0.23 | 1.09 | 0.982 | 1.02 | 1.08 | 1.31 | 0.679 | 0.731 | 0.683 | 0.643 |
| SK-LU-1 | 0.356 | 0.341 | 0.348 | 0.41 | 1.03 | 0.9 | 0.867 | 0.829 | 1.1 | 1.07 | 0.9 | 0.855 | 0.906 | 0.732 | 0.826 | 0.589 | 0.895 |
| H3255 | 0.483 | 0.498 | 0.5 | 0.527 | 0.506 | 0.533 | 0.518 | 0.577 | 0.94 | 0.949 | 0.917 | 0.984 | 0.988 | 0.646 | 0.538 | 0.625 | 0.548 |
